Results as given in ChEMBL document CHEMBL1155471, “Discovery of potent, balanced and orally active dual NK1/NK3 receptor ligands” (Bioorg Med Chem Lett, 2010).

How the values were obtained:
Substance-P receptor = Substance-P receptor (Homo sapiens, UniProt P25103); assay: Displacement of [3H]substance P from human NK1 receptor expressed in CHO cells; assay type: cell-based
Neuromedin-K receptor = molecular target: T1, Neuromedin-K receptor (Homo sapiens, UniProt P29371); assay: Displacement of [3H]SR142801 from human NK3 receptor expressed in HEK293-EBNA cells; assay type: cell-based
T1 sequence (P29371 whole entry): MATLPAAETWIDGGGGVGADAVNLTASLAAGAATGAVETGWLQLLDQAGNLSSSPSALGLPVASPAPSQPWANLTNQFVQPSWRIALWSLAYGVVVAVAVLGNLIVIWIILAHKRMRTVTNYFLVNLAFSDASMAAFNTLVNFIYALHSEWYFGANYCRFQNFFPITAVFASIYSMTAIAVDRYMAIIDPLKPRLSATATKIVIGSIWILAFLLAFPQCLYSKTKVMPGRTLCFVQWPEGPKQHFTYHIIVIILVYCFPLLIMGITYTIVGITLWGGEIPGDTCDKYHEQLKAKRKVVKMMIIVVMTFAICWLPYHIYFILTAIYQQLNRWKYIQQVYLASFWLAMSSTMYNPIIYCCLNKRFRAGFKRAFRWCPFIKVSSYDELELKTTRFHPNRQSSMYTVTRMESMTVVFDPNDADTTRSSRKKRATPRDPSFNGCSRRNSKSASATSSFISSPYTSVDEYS

Meriones unguiculatus [1] = assay: Inhibition of GR-73632-induced foot tapping behavior in po dosed Mongolian gerbil administered 2 hrs before GR-73632 challenge; assay type: functional; conditions: read-out: ID50 (the source's name)
Meriones unguiculatus [2] = assay: Inhibition of GR-73632-induced foot tapping behavior in Mongolian gerbil at 10 mg/kg, po administered 2 hrs before GR-73632 challenge; assay type: functional

Substance-P receptor, sequence (P25103 whole entry): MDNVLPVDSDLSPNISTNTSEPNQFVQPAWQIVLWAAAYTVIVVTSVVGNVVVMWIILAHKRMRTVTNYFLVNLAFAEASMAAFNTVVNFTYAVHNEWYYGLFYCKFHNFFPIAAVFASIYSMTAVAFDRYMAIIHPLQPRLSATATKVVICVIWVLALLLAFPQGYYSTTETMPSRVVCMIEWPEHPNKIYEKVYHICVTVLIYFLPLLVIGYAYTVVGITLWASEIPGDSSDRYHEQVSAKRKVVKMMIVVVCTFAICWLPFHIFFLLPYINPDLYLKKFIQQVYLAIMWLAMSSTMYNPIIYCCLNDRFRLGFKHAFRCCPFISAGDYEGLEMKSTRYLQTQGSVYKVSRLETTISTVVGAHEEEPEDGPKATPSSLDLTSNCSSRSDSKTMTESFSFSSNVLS

| Ki (Substance-P receptor) [nM] | Ki (Neuromedin-K receptor) [nM] | Compound | ED50 (Meriones unguiculatus [1]) [mg/kg] | inhibition in vivo at 10 mg/kg (Meriones unguiculatus [2]) [%] |
| --- | --- | --- | --- | --- |
| 1.58 | 0.91 | CN(C(=O)C(C)(C)c1cc(C(F)(F)F)cc(C(F)(F)F)c1)c1cnc(N2CC[C@H](O)[C@H]2CO)cc1-c1ccccc1Cl | – | – |
| 0.78 | 2.91 | CN(CCO)c1cc(-c2ccccc2Cl)c(N(C)C(=O)C(C)(C)c2cc(C(F)(F)F)cc(C(F)(F)F)c2)cn1 | – | – |
| 0.91 | 29.8 | COC[C@@H]1C[C@@H](OC)CN1c1cc(-c2ccccc2Cl)c(N(C)C(=O)C(C)(C)c2cc(C(F)(F)F)cc(C(F)(F)F)c2)cn1 | – | – |
| – | – | CN(C(=O)C(C)(C)c1cc(C(F)(F)F)cc(C(F)(F)F)c1)c1cnc(N2C[C@@H](O)C[C@H]2CO)cc1-c1ccccc1Cl | 1.3 | – |
| 1 | 0.74 | CN(C(=O)C(C)(C)c1cc(C(F)(F)F)cc(C(F)(F)F)c1)c1cnc(N2CCC[C@H]2CO)cc1-c1ccccc1Cl | – | – |
| 1.12 | – | CN(C(=O)C(C)(C)c1cc(C(F)(F)F)cc(C(F)(F)F)c1)c1cnc(NCCO)cc1-c1ccccc1Cl | 1 | – |
| 2.27 | 29.7 | CN(C(=O)C(C)(C)c1cc(C(F)(F)F)cc(C(F)(F)F)c1)c1cnc(N2CCCC[C@@H]2CO)cc1-c1ccccc1Cl | – | – |
| 3.05 | 93.3 | COCCNc1cc(-c2ccccc2Cl)c(N(C)C(=O)C(C)(C)c2cc(C(F)(F)F)cc(C(F)(F)F)c2)cn1 | – | – |
| 1.15 | 0.91 | CN(C(=O)C(C)(C)c1cc(C(F)(F)F)cc(C(F)(F)F)c1)c1cnc(N(CCO)CCO)cc1-c1ccccc1Cl | – | – |
| 11.1 | 7.72 | CN(C(=O)C(C)(C)c1cc(C(F)(F)F)cc(C(F)(F)F)c1)c1cnc(N2CCCC[C@H]2CO)cc1-c1ccccc1Cl | – | – |
| 1.72 | 15.1 | CN(C(=O)C(C)(C)c1cc(C(F)(F)F)cc(C(F)(F)F)c1)c1cnc(N2CCCC(O)C2)cc1-c1ccccc1Cl (configuration not stated) | – | – |
| 1.58 | 7.27 | CN(C(=O)C(C)(C)c1cc(C(F)(F)F)cc(C(F)(F)F)c1)c1cnc(N2CCC[C@@H]2CO)cc1-c1ccccc1Cl | – | – |
| 3.37 | 12.2 | CCN(CCO)c1cc(-c2ccccc2Cl)c(N(C)C(=O)C(C)(C)c2cc(C(F)(F)F)cc(C(F)(F)F)c2)cn1 | – | 100 |
| 0.86 | 8.38 | CN(C(=O)C(C)(C)c1cc(C(F)(F)F)cc(C(F)(F)F)c1)c1cnc(N2CC[C@H](O)C2)cc1-c1ccccc1Cl | – | – |
| 1.38 | 0.95 | CN(C(=O)C(C)(C)c1cc(C(F)(F)F)cc(C(F)(F)F)c1)c1cnc(N(CCO)CCCO)cc1-c1ccccc1Cl | – | – |
| 2.24 | 5.4 | CCCN(CCO)c1cc(-c2ccccc2Cl)c(N(C)C(=O)C(C)(C)c2cc(C(F)(F)F)cc(C(F)(F)F)c2)cn1 | – | 100 |
| 2.62 | 6.87 | CN(C(=O)C(C)(C)c1cc(C(F)(F)F)cc(C(F)(F)F)c1)c1cnc(N2CC[C@@H](O)C2)cc1-c1ccccc1Cl | – | – |

| Compound | Ki (Substance-P receptor) [nM] | Ki (Neuromedin-K receptor) [nM] | ED50 (Meriones unguiculatus [1]) [mg/kg] | inhibition in vivo at 10 mg/kg (Meriones unguiculatus [2]) [%] |
| --- | --- | --- | --- | --- |
| CN(C(=O)C(C)(C)c1cc(C(F)(F)F)cc(C(F)(F)F)c1)c1cnc(N2C[C@H](O)C[C@H]2CO)cc1-c1ccccc1Cl | – | 1.12 | 1.1 | – |
